Test results reported in publication PMC11303761 (Nature Communications, 2024).

Key:
Type in all cases: cell-based
β2AR = β2AR (Homo sapiens, UniProt P07550); test: β-arrestin2 recruitment; conditions: β2-Tango HTLA; agonist alone or with 100 µM PAGln (Fig 2A, 2C)
β1AR [1] = biological target: T1, β1AR (Homo sapiens, UniProt P08588); test: cAMP production in β1-HEK293 cells; conditions: 100 µM
β1AR [2] = biological target: T1, β1AR; test: β-arrestin2 recruitment; conditions: β1-HTLA cells

T1 sequence (P08588 whole entry): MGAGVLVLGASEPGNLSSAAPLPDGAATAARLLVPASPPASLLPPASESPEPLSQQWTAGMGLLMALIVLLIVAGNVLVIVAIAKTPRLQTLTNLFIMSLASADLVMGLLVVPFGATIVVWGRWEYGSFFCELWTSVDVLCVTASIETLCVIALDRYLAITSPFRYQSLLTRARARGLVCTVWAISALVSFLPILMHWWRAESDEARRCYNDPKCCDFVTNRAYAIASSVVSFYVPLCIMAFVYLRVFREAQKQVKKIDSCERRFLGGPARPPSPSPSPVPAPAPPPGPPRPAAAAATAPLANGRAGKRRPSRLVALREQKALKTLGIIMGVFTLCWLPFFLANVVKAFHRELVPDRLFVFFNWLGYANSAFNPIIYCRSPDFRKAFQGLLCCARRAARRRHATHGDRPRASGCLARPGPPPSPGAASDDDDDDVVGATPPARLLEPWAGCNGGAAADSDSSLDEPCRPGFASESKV
β2AR, sequence (P07550 whole entry): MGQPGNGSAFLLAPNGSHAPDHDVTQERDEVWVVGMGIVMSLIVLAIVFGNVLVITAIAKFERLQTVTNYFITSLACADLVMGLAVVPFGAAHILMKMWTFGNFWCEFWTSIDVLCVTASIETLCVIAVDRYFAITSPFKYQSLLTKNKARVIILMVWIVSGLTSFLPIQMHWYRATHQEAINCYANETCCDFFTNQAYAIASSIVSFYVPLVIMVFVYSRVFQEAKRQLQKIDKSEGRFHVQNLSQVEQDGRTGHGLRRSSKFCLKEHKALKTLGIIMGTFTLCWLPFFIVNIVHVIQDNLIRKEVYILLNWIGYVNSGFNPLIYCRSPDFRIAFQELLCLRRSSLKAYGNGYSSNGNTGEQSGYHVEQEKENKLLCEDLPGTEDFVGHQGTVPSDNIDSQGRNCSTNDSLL

NC[C@H](O)c1ccc(O)c(O)c1 [NE, norepinephrine]
Bmax of β-arrestin2 recruitment (β2AR): 3137 RLU

NC(=O)CC[C@H](NC(=O)Cc1ccccc1)C(=O)O [PAGln, Phenylacetylglutamine]
cAMP production by compound alone (β1AR [1]): failed to induce cAMP production
effect of PAGln on ISO- or NE-induced β-arrestin2 recruitment (β1AR [2]): failed to show any significant effect

N[C@@H](Cc1ccccc1)C(=O)O [Phe, phenylalanine]
cAMP production by compound alone (β1AR [1]): failed to induce cAMP production
